Several values for one entry are separate records, joined by “and”; a condition that tells them apart may be missing. Equal values may be shown once. Read-outs that look alike come from different tables or passages of the source.
How the values were obtained:
AHR [1] = molecular target: T1, AHR (Homo sapiens, UniProt P35869); assay: In vitro assay 1: antagonism in human cell line (AHR transactivation, firefly luciferase reporter, kynurenic acid prestimulated); format: cell-based; conditions: AHR Antagonism Human IC50 [M]
T1 construct: U87 MG glioblastoma cells (ATCC #HTB-14) endogenously expressing AHR; endogenous in cells; host or cells: U87 MG glioblastoma cells (ATCC #HTB-14)
T1 sequence (P35869 11-848): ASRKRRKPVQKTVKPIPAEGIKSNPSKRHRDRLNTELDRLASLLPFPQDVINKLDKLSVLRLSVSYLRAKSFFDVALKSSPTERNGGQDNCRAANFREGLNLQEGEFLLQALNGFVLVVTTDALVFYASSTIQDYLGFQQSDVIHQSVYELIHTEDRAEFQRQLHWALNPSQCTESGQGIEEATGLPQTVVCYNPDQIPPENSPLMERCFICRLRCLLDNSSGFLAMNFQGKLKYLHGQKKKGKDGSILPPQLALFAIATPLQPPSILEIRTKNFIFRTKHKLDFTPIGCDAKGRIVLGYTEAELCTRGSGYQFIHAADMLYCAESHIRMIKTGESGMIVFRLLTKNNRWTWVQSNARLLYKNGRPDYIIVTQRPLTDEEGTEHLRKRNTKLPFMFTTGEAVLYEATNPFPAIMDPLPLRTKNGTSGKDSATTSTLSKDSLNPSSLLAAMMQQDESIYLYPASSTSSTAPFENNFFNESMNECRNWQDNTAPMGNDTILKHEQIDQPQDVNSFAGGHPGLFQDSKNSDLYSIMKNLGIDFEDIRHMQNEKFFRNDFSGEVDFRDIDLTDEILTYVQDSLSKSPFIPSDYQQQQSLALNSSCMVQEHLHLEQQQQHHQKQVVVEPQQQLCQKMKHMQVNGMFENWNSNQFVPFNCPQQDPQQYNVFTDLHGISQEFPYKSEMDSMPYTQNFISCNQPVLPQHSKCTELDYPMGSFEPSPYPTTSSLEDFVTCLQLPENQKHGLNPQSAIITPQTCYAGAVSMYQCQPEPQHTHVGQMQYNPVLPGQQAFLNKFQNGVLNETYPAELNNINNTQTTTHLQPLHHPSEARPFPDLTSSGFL
In short: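 U87 MG + DRE-firefly/constitutive-Renilla stable reporters; kynurenic acid prestim; dual-luc read; Renilla = tox; normalized vs pos/neg controls (pos: 150 μM KYNA + 5 μM staurosporine).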

AHR [2] = molecular target: T2, AHR (Mus musculus, UniProt P30561); assay: In vitro assay 3: antagonism in mouse cell line (AHR transactivation, firefly luciferase reporter, kynurenic acid prestimulated); format: cell-based; conditions: 200 μM kynurenic acid, 20 hours, read-out: AHR Antagonism Mouse IC50
T2 sequence (P30561 1-848 P471L/N533S/M589L): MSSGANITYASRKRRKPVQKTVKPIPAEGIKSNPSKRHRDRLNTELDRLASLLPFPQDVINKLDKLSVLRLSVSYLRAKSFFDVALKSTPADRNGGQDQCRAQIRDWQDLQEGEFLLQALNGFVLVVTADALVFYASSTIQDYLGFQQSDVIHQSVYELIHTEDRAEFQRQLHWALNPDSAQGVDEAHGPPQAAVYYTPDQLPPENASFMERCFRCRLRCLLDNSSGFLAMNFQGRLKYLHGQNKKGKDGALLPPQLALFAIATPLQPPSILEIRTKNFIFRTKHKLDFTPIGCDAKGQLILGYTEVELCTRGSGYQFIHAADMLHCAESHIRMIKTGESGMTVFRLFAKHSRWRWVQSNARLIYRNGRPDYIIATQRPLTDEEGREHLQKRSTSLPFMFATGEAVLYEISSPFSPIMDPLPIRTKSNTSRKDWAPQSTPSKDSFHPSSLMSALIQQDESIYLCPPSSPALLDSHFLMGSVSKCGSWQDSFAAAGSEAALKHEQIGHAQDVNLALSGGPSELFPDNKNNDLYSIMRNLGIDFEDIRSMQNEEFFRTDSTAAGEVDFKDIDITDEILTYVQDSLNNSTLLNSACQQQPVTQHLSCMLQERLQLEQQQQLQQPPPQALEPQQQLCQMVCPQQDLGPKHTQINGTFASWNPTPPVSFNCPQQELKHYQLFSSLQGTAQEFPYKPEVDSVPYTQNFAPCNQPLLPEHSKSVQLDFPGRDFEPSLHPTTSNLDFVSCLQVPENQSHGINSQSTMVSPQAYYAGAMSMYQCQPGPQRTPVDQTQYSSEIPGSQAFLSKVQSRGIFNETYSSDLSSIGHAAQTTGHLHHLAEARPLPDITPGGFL
In short: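 Mouse cells stably carrying a DRE-driven, AHR-inducible firefly luciferase reporter were prestimulated with the endogenous agonist kynurenic acid before compound addition. Luciferase activity was measured by luminescence and normalized to positive and negative controls, with cells lacking kynurenic acid serving as full-inhibition control. Repeat tests are reported as mean or median.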

[3] = Hepa 1c1c7 cells, firefly luciferase reporter

Compound | IC50 (AHR [1]) | IC50 (AHR [2]; mouse Hepa 1c1c7 cells) [nM] | IC50 (AHR [1]; firefly luciferase reporter) [M] | IC50 (AHR [2]; [3]) [nM]
CS(=O)(=O)c1ccc(-c2nc3c4ccccc4nc(N[C@@H]4CCCNC4=O)n3n2)cc1 [Example 374, (3R)-3-({2-[4-(methanesulfonyl)phenyl][1,2,4]triazolo[1,5-c]quinazolin-5-yl}amino)piperidin-2-one] | 4.49e-07 M | 211 |  | 
O=C1NCCCCCC1Nc1nc2ccccc2c2nc(-c3ccccc3OC(F)(F)F)nn12 (centres unmarked) [Example 461, 3-({2-[2-(trifluoromethoxy)phenyl][1,2,4]triazolo[1,5-c]quinazolin-5-yl}amino)azocan-2-one] | 6.18e-09 M | 1.95 |  | 
Cn1cc(-c2nc3c4ccccc4nc(NC4CNCCNC4=O)n3n2)cn1 (single isomer, unassigned) [Example 23, 6-{[2-(1-methyl-1H-pyrazol-4-yl)[1,2,4]triazolo[1,5-c]quinazolin-5-yl]amino}-1,4-diazepan-5-one] | > 2e-05 M and 1.65e-05 M | 3380 |  | 
Cn1cc(-c2nc3c4ccccc4nc(N[C@@H]4CCCCNC4=O)n3n2)cn1 [Example 12, (3R)-3-{[2-(1-methyl-1H-pyrazol-4-yl)[1,2,4]triazolo[1,5-c]quinazolin-5-yl]amino}azepan-2-one] | 1.31e-08 M | 8.31 |  | 
O=C1NCCC[C@H]1Nc1nc2ccccc2c2nc(-c3cc(Cl)ccc3OC(F)(F)F)nn12 [Example 499, (3R)-3-({2-[5-chloro-2-(trifluoromethoxy)phenyl][1,2,4]triazolo[1,5-c]quinazolin-5-yl}amino)piperidin-2-one] | > 2e-05 M | > 20000 |  | 
O=C1NCC[C@H]1Nc1nc2ccccc2c2nc(-c3ccc(Cl)cc3OC(F)F)nn12 [Example 528, (3R)-3-({2-[4-chloro-2-(difluoromethoxy)phenyl][1,2,4]triazolo[1,5-c]quinazolin-5-yl}amino)pyrrolidin-2-one] | 9.3e-09 M | 6.94 |  | 
Cn1cc(-c2nc3c4cccc(F)c4nc(N[C@@H]4CCCCNC4=O)n3n2)cn1 [Example 551, (3R)-3-{[7-fluoro-2-(1-methyl-1H-pyrazol-4-yl)[1,2,4]triazolo[1,5-c]quinazolin-5-yl]amino}azepan-2-one] | 1.17e-08 M | 13.8 |  | 
O=C1NCCCC[C@H]1Nc1nc2ccccc2c2nc(-c3ccsc3Cl)nn12 [Example 611, (3R)-3-{[2-(2-chlorothiophen-3-yl)[1,2,4]triazolo[1,5-c]quinazolin-5-yl]amino}azepan-2-one] | 4.36e-09 M | 3.16 |  | 
CCn1cc(-c2nc3c4cccc(Cl)c4nc(N[C@@H]4CNCCNC4=O)n3n2)cn1 [Example 957, (6R)-6-{[7-chloro-2-(1-ethyl-1H-pyrazol-4-yl)[1,2,4]triazolo[1,5-c]quinazolin-5-yl]amino}-1,4-diazepan-5-one] |  |  | 1.22e-08 | 16.8
Cn1cc(-c2nc3c4cccc(C(F)(F)F)c4nc(N[C@@H]4CCCCNC4=O)n3n2)cn1 [Example 583, (3R)-3-{[2-(1-methyl-1H-pyrazol-4-yl)-7-(trifluoromethyl)[1,2,4]triazolo[1,5-c]quinazolin-5-yl]amino}azepan-2-one] | 9.48e-10 M | 3.11 |  | 
COc1cccc(-c2nc3c4ccccc4nc(NC4CCCNC4=O)n3n2)c1 (centres unmarked) [Example 77, 3-{[2-(3-methoxyphenyl)[1,2,4]triazolo[1,5-c]quinazolin-5-yl]amino}piperidin-2-one] | 6.52e-08 M | 52.1 |  | 
O=C1NCCCC[C@H]1Nc1nc2ccccc2c2nc(-c3ccco3)nn12 [Example 130, (3R)-3-{[2-(furan-2-yl)[1,2,4]triazolo[1,5-c]quinazolin-5-yl]amino}azepan-2-one] | 4.55e-09 M | 5.82 |  | 
O=C1NCC[C@H]1Nc1nc2ccccc2c2nc(-c3ccccc3OC(F)F)nn12 [Example 473, (3R)-3-({2-[2-(difluoromethoxy)phenyl][1,2,4]triazolo[1,5-c]quinazolin-5-yl}amino)pyrrolidine-2-one] | 5.1e-08 M | 17.9 |  | 
O=C1NCCNC[C@H]1Nc1nc2ccccc2c2nc(-c3cn[nH]c3)nn12 [Example 264, (6R)-6-{[2-(1H-pyrazol-4-yl)[1,2,4]triazolo[1,5-c]quinazolin-5-yl]amino}-1,4-diazepan-5-one] | > 2e-05 M | > 20000 |  | 
O=C1NCCCC[C@@H]1Nc1nc2ccccc2c2nc(-c3ccc(Cl)cc3OC(F)F)nn12 [Example 526, (3S)-3-({2-[4-chloro-2-(difluoromethoxy)phenyl][1,2,4]triazolo[1,5-c]quinazolin-5-yl}amino)azepan-2-one] | 1.47e-08 M | 2.33 |  | 

The remaining lines, values ahead:

IC50 (AHR [1]) | IC50 (AHR [2]; mouse Hepa 1c1c7 cells) [nM] | IC50 (AHR [1]; firefly luciferase reporter) [M] | IC50 (AHR [2]; [3]) [nM] | Compound
4.08e-09 M | 3.39 |  |  | O=C1NCCCC[C@H]1Nc1nc2ccccc2c2nc(-c3cnn(C4CCC4)c3)nn12 [Example 603, (3R)-3-{[2-(1-cyclobutyl-1H-pyrazol-4-yl)[1,2,4]triazolo[1,5-c]quinazolin-5-yl]amino}azepan-2-one]
6.79e-10 M | 0.308 |  |  | CCCNC(=O)[C@@H](C)Nc1nc2c(Br)cccc2c2nc(-c3ccc(Cl)cc3OC(F)F)nn12 [Example 692, N^2-{7-bromo-2-[4-chloro-2-(difluoromethoxy)phenyl][1,2,4]triazolo[1,5-c]quinazolin-5-yl}-N-propyl-D-alaninamide]
1.12e-07 M | 25.5 |  |  | CC(C)(C)n1nccc1-c1nc2c3ccccc3nc(N[C@@H]3CCCCNC3=O)n2n1 [Example 608, (3R)-3-{[2-(1-tert-butyl-1H-pyrazol-5-yl)[1,2,4]triazolo[1,5-c]quinazolin-5-yl]amino}azepan-2-one]
3.61e-09 M | 51.3 |  |  | CCn1cc(-c2nc3c4cccc(SC)c4nc(N[C@@H]4CCCCNC4=O)n3n2)c(C)n1 [Example 772, (3R)-3-{[2-(1-ethyl-3-methyl-1H-pyrazol-4-yl)-7-(methylsulfanyl)[1,2,4]triazolo[1,5-c]quinazolin-5-yl]amino}azepan-2-one]
1.96e-07 M | 275 |  |  | COc1cccc(-c2nc3c4ccccc4nc(NC4CCNC4=O)n3n2)c1 (single isomer, unassigned) [Example 121, 3-{[2-(3-methoxyphenyl)[1,2,4]triazolo[1,5-c]quinazolin-5-yl]amino}pyrrolidin-2-one]
8.08e-07 M | 80.7 |  |  | COc1ccc(-c2nc3c4cccc(Br)c4nc(N[C@H]4CCCCNC4=O)n3n2)c(C(F)(F)F)c1 [Example 570, (3S)-3-({7-bromo-2-[4-methoxy-2-(trifluoromethyl)phenyl][1,2,4]triazolo[1,5-c]quinazolin-5-yl}amino)azepan-2-one]
 |  | 2.47e-09 | 2.03 | COc1ccc(-c2nc3c4cccc(Br)c4nc(N[C@@H](C(=O)N4CCN(C)CC4)C(C)C)n3n2)cc1 [Example 922, (2R)-2-{[7-bromo-2-(4-methoxyphenyl)[1,2,4]triazolo[1,5-c]quinazolin-5-yl]amino}-3-methyl-1-(4-methylpiperazin-1-yl)butan-1-one]

— patent publication US20230113037A1 (Bayer Aktiengesellschaft, priority 2019, published 2023)
